Earlier results as cited in US9433553B2, “Device and method for prevention and treatment of deep venous thrombosis” (Fred Herz Patents LLC, priority 2001, dated 2016).
Read-outs that look alike come from different tables or passages of the source. Values belong to the compound of their own block, whether it stands above or below them.

Legend:
thrombin = thrombin (Homo sapiens, UniProt P00734); conditions: synthetic peptides of the thrombin receptor
[1] = test system: patients undergoing elective total hip replacement
[2] = test system: patients undergoing knee arthroplasty
[3] = test system: patients having surgery after hip fracture; conditions: aspirin treated group; placebo 46%
[4] = test system: experimental thrombus in the rabbit jugular vein
[5] = test system: stasis induced thrombosis; conditions: rabbit; 100% without
[6] = test system: patients with spinal cord injury; conditions: Green (1991)
[7] = test system: patients undergoing radical prostatectomy
[8] = test system: patients with deep vein thrombosis; conditions: for patients who developed pulmonary embolism: APTT 50-70 seconds, acute deep vein thrombosis
[9] = test system: patients who underwent elective general surgery
[10] = total hip replacement, no placebo group
[11] = 349 patients undergoing total hip replacement, dose adjusted
[12] = 665 patients, fixed doses, elective total hip replacement
[13] = subcutaneous, adjusted to APTT 1.5-2 times pretreatment, 66 patients
[14] = 4,498 general surgery patients randomized to LMWH or placebo

inhibition of the chromogenic substrate activity of thrombin (thrombin): competitive inhibitors
Compound: 38-45: synthetic peptide corresponding to the thrombin receptor cleavage site (residues 38-45) (LDPRSFLL; UniProt P25116 38-45, looked up, fragment) [Peptide 38-45]

inhibition of the chromogenic substrate activity of thrombin (thrombin): competitive inhibitors
Compound: 38-64: synthetic peptide corresponding to the covalently associated domains (residues 38-64) of the thrombin receptor (LDPRSFLLRNPNDKYEPFWEDEEKNES; UniProt P25116 38-64, looked up, fragment) [Peptide 38-64]

Compound: CC(=O)CC(c1ccccc1)c1c(O)c2ccccc2oc1=O (stereo not shown) [Warfarin]
incidence of DVT ([1]; Bailey et al (1991), hip replacement patients, low dose warfarin): 26.6%
incidence of proximal vein thrombosis [1, 10]: 3%
total incidence of DVT [1, 10]: 31%
incidence of thigh vein thrombi ([2]; knee arthroplasty / total knee replacement, 48 patients): 6%
overall incidence of DVT ([2]; knee arthroplasty / total knee replacement, 48 patients, no placebo group): 33%
patients having calf thrombi ([2]; total knee replacement, 48 patients): 29%

Compound: CC(=O)Oc1ccccc1C(=O)O [aspirin]
incidence of DVT [3]: 42%

Compound: Ac(D)-Phe-Pro-bro-Arg [DuP 714]
fibrin accretion on an experimental thrombus ([4]; rabbit jugular vein): effectively inhibited
systemic anticoagulation ([4]; rabbit jugular vein model): little systemic anticoagulation
incidence of thrombosis [5]: 33%

Compound: enoxaparin
proximal vein thrombi ([1]; Turpie (1991), fixed dose, elective total hip replacement, placebo 20%): 4%
rate of DVT ([1]; Turpie (1991), fixed dose, elective total hip replacement, placebo 42%): 12%

Compound: heparin
protection against postoperative DVT, adjusted versus fixed low dose ([1]; 100 patients, hip replacement or fractured neck of femur, p=0.017): Significant improvement
incidence of DVT [1, 11]: 16%
incidence of DVT [1, 12]: 23.2%
rate of proximal vein thrombi [1, 12]: 6.5%
bleeding, adjusted versus fixed dose ([1]; Leyvraz et al (1983)): No differences
patients who developed DVT ([1]; Leyvraz et al (1983), 38 patients, adjusted dose (APTT 31.5-36 seconds)): 13%
patients who developed DVT ([1]; Leyvraz et al (1983), 41 patients, fixed dose of 3500 U every eight hours): 39%
incidence of DVT left by low dose heparin treatment ([1]; total hip and total knee replacement patients): around 25%
patients with bleeding ([6]; adjusted (higher) dose): 24%
thromboembolism ([6]; dose adjusted to APTT 1.5 times control, mean 13,200 U every 12 hours): 7%
patients with bleeding ([6]; fixed dose group): none
thromboembolism ([6]; fixed dose of 5000 U subcutaneously every 12 hours, 29 patients): 31%
bleeding complications ([7]; mini-dose heparin treated group): unacceptably high
incidence of pulmonary emboli ([7]; mini-dose heparin, 11% without): none
effectiveness of low dose heparin (intracerebral hemorrhage): ineffective
patients with recurrent venous thromboembolism diagnosed objectively ([8]; Prandoni et al (1992), similar study, 85 patients): 14%
patients with improved mean Marder score ([8]; adjusted dose intravenous, 49 patients): 61%
major bleeding associated with initial therapy ([8]; adjusted dose intravenous, continuous infusion): 5%
incidence of new episodes of venous thromboembolism ([8]; adjusted dose intravenous, continuous infusion, initial treatment of proximal vein thrombosis): 6.9%
patients who developed pulmonary embolism ([8]; adjusted subcutaneous, 47 patients): 10.6%
patients who developed pulmonary embolism ([8]; continuous intravenous, 49 patients): 10.2%
rate of hemorrhagic complications ([8]; subcutaneous and intravenous groups, no difference): 9.8%
patients with improvement [8, 13]: 48%
patients with increase in thrombus size [8, 13]: 18%
reduction of postoperative death from pulmonary emboli ([9]; low dose heparin): 65%
subclinical thrombi prevented ([9]; low dose heparin, thrombi found by leg scanning after elective general surgery): approximately 65%

Compound: low molecular weight heparin [LMWH]
incidence of DVT [1, 11]: 12.6%
incidence of DVT [1, 12]: 19.4%
rate of proximal vein thrombi [1, 12]: 5.4%
reduction of incidence of DVT ([1]; elective total hip replacement, 56.6% to 15.5%): 74%
incidence of DVT ([1]; elective total hip replacement, without LMWH 56.6%): 15.5%
reduction of incidence of proximal vein thrombi ([2]; knee arthroplasty or tibial osteotomy): 100%
reduction of incidence of DVT ([2]; knee arthroplasty or tibial osteotomy, every 12 hours): 71%
incidence of DVT ([2]; knee arthroplasty or tibial osteotomy, every 12 hours, placebo 65%): 19%
incidence of proximal vein thrombi ([2]; knee arthroplasty or tibial osteotomy, placebo 19%): none
major bleeding compared to placebo ([9]; 4,498 general surgery patients): No difference
postoperative wound hematomas and transfusion requirements compared to placebo ([9]; 4,498 general surgery patients): increase in postoperative wound hematomas and transfusion requirements
overall mortality [9, 14]: 0.36%
thromboembolic mortality [9, 14]: 0.09%
incidence of DVT ([9]; Ockelford et al (1989), 183 patients, LMWH or placebo): 4.2%
efficacy compared with standard heparin ([9]; seven studies in general surgery patients): same efficacy
